Values joined by “and” are separate entries in the source; they are usually repeats but may differ in a detail not shown here. Equal entries are not always repeated.
Tests used:
[1] = Clinical study, PK of Compound 1 in combination with dexamethasone; format: in vivo, human; details: MM patients, 80 to 640 mg target doses
Method: A dose escalation study is conducted to evaluate the safety and tolerability of Compound 1 in combination with dexamethasone and dexamethasone plus carfilzomib in patients with relapsed/refractory (R/R) multiple myeloma (MM) and t (11;14). Also, the corresponding maximum tolerated dose (MTD)/maximum assessed dose (MAD), recommended Phase 2 dose (RP2D) and pharmacokinetics for Compound 1 in the combination therapies are to be observed.
Compound 1 plus dexamethasone: Patients with R/R MM and t (11;14) receive increasing doses of Compound 1 once daily with starting dose at 80 mg once daily, plus 40 mg of dexamethasone once weekly to determine the safety, tolerability, efficacy, and pharmacokinetics (PK). Upon completion of the dose-limiting toxicity (DLT) window (21 days) and depending on the number of evaluable patients and observed DLTs, the dose of Compound 1 may be de-escalated to 40 mg once daily, stay at 80 mg once daily, or be escalated to 160 mg once daily. Upon dose escalation to 160 mg once daily and provided there are no DLTs observed during the DLT window, the study may be conducted to escalate to a few higher dose levels (up to 640 mg once daily), or to insert some certain intermediate doses between 80 mg and 160 mg once daily.

[2] = system: KMS-12-PE human MM subcutaneous xenograft model; test: KMS-12-PE xenograft model study: tumor growth; format: in vivo, NCG mice; details: for Tumor Volume (mm^3) (Mean ± SEM) Day 17: 17 days
Method: KMS-12-PE, a human MM cell line, was obtained from Deutsche Sammlung von Mikroorganismen und Zellkulturen (DSMZ, Catalog: ACC 606). KMS-12-PE cells were cultured in RPMI 1640 complete medium, supplemented with 20% (v/v) fetal bovine serum, and 100 μg/mL of penicillin and streptomycin. In this study, cells were used within 10 passages of recovery from liquid nitrogen. KMS-12-PE cells were maintained as suspension cultures at 37° C. in a 5% CO2 atmosphere, being passaged twice weekly. […] Resuspended cells were placed on ice prior to inoculation. The right front flank of each mouse was cleaned with 75% ethanol prior to cell inoculation. Each animal was injected subcutaneously with 3×10^7 cells in 200 μL of cells suspension in the right front flank via a 1 mL LS 25GA syringe. […] Body weight was assessed immediately before dosing and volume dosed was adjusted accordingly. Tumor volume was measured twice weekly in two dimensions using a caliper (measurable since day 4 post treatment in this study). Body weights were recorded twice weekly. One individual was responsible for tumor measurement for the duration of the study. Mice were also monitored daily for clinical signs of toxicity. Mice were euthanized using carbon dioxide at the end of the study. The two-dimension diameters of tumor were determined using a caliper. Tumor volume was calculated using the formula: […] Tumor growth inhibition (TGI) was calculated using the following formula: […] Where, treated t=treated tumor volume at time t, treated t0=treated tumor volume at time 0, vehicle t=vehicle tumor volume at time t, vehicle t0=vehicle tumor volume at time 0. The tumor volume on day 17 post treatment was analyzed using ANOVA method on logarithmic scale in SAS Enterprise Guide version: 7.15 HF3. The following comparisons were made among treatment groups, […] The combination therapy was compared to corresponding single agents. […] The EOHSA tests were adjusted by Holm's multiple comparison test. #p<0.05, ####p<0.0001.

[3] = system: patients with R/R MM harboring t (11;14); format: in vivo, human; details: 19 patients, 80, 160, 320 and 640 mg QD with dexamethasone, preliminary
[4] = PK analysis of Compound 1 in KMS-12-PE xenograft mice (plasma, day 14); format: in vivo, NCG mice; details: for AUC0-24 h of Compound 1, Day 14 / Cmax of Compound 1, Day 14: plasma; for Individual animal's plasma concentration of Compound 1, 0 h post treatment / Individual animal's plasma concentration of Compound 1, 0.5 h post treatment / Individual animal's plasma concentration of Compound 1, 2 h post treatment / Individual animal's plasma concentration of Compound 1, 8 h post treatment / Individual animal's plasma concentration of Compound 1, 24 h post treatment: day 14, steady state
Method: On day 14 post treatment, blood samples (about 100 μL per mouse) were collected from the retro-orbital sinus under isoflurane/oxygen anesthesia at predose 0, 0.5, 2, 8, and 24 hours after dosing of Compound 1 (3 mice per time point, every mouse was used for 2 or 3 time points). The blood was transferred to the EDTA-K2 anticoagulation tube, and the plasma was collected by centrifugation at 5,600 rpm for 7 min and was kept frozen in −80° C. until analysis.
For PK analysis, maximum plasma concentration (Cmax) and time to peak (Tmax) were got directly from the plasma concentration versus time graphs. The area under the plasma concentration-time curve (AUC) from time 0 to 24 hours post-dose (AUC0-24h) was calculated.

[5] = Compound 1 1.5 mg/kg + Dexamethasone 0.1 mg/kg p.o. QD
[6] = Compound 1 1.5 mg/kg + Dexamethasone 0.1 mg/kg
[7] = Compound 1 1.5 mg/kg + Dexamethasone 1 mg/kg p.o. QD
[8] = Compound 1 1.5 mg/kg + Dexamethasone 1 mg/kg
[9] = Compound 1 1.5 mg/kg p.o. QD, single agent
[10] = Compound 1 1.5 mg/kg p.o. QD, 1.5 mg/kg
[11] = Dexamethasone 0.1 mg/kg p.o. QD

Compound: CC(C)c1ccccc1[C@@H]1CCCN1C1CC2(CCN(c3ccc(C(=O)NS(=O)(=O)c4ccc(NCC5CCC(C)(O)CC5)c([N+](=O)[O-])c4)c(Oc4cnc5[nH]ccc5c4)c3)CC2)C1 (stereo partly drawn) [Compound 1, 2-((1H-pyrrolo[2,3-b]pyridin-5-yl)oxy)-N-((4-((((1r,4r)-4-hydroxy-4-methylcyclohexyl)methyl)amino)-3-nitrophenyl)sulfonyl)-4-(2-((S)-2-(2-isopropylphenyl)pyrrolidin-1-yl)-7-azaspiro[3.5]nonan-7-yl)benzamide]
- drug-drug-interaction (DDI) potential between dexamethasone and Compound 1 [1]: low
- TGI (%) Day 17 ([2]; Compound 1 1.5 mg/kg p.o. QD): 11%
- Tumor Volume (mm^3) (Mean ± SEM) Day 17 ([2]; Compound 1 1.5 mg/kg p.o. QD): 1011.7 ± 103.8 mm^3
- clinical activity / disease control [3]: demonstrated activity at tested dose levels, and most patients achieved disease control
- AUC0-24 h of Compound 1, Day 14 [4, 5]: 107 ng·h/mL
- Cmax of Compound 1, Day 14 [4, 5]: 29.5 ng/mL
- Individual animal's plasma concentration of Compound 1, 0 h post treatment [4, 6]: BLOQ
- Individual animal's plasma concentration of Compound 1, 0.5 h post treatment [4, 6]: 4.02 ng/mL and 5.2 ng/mL and 3.67 ng/mL
- Individual animal's plasma concentration of Compound 1, 2 h post treatment [4, 6]: 36.7 ng/mL and 30.9 ng/mL and 20.8 ng/mL
- Individual animal's plasma concentration of Compound 1, 8 h post treatment [4, 6]: 3.18 ng/mL and 6.95 ng/mL and 3.59 ng/mL
- Individual animal's plasma concentration of Compound 1, 24 h post treatment [4, 6]: BLOQ
- AUC0-24 h of Compound 1, Day 14 [4, 7]: 179 ng·h/mL
- Cmax of Compound 1, Day 14 [4, 7]: 42.4 ng/mL
- Individual animal's plasma concentration of Compound 1, 0 h post treatment [4, 8]: BLOQ
- Individual animal's plasma concentration of Compound 1, 0.5 h post treatment [4, 8]: 14.4 ng/mL and 6.94 ng/mL and 9.04 ng/mL
- Individual animal's plasma concentration of Compound 1, 2 h post treatment [4, 8]: 54.9 ng/mL and 35.8 ng/mL and 36.4 ng/mL
- Individual animal's plasma concentration of Compound 1, 8 h post treatment [4, 8]: 5.15 ng/mL and 7.02 ng/mL and 5.05 ng/mL
- Individual animal's plasma concentration of Compound 1, 24 h post treatment [4, 8]: BLOQ (2×) and 0.692 ng/mL
- AUC0-24 h of Compound 1, Day 14 [4, 9]: 200 ng·h/mL
- Cmax of Compound 1, Day 14 [4, 9]: 55.8 ng/mL
- exposure (AUC0-24h and Cmax) at steady state, single treatment group versus combo treatment ([4]; Compound 1 1.5 mg/kg p.o. QD, with or without dexamethasone): consistent with that in combo treatment
- Individual animal's plasma concentration of Compound 1, 24 h post treatment ([4]; Compound 1 1.5 mg/kg p.o. QD): BLOQ
- Individual animal's plasma concentration of Compound 1, 0 h post treatment [4, 10]: 1.09 ng/mL and BLOQ (2×)
- Individual animal's plasma concentration of Compound 1, 0.5 h post treatment [4, 10]: 8 ng/mL and 5.72 ng/mL and 9.29 ng/mL
- Individual animal's plasma concentration of Compound 1, 2 h post treatment [4, 10]: 62.8 ng/mL and 40.7 ng/mL and 63.9 ng/mL
- Individual animal's plasma concentration of Compound 1, 8 h post treatment [4, 10]: 9.97 ng/mL and 9.73 ng/mL and 5.81 ng/mL

Compound: C[C@@H]1C[C@H]2[C@@H]3CCC4=CC(=O)C=C[C@]4(C)[C@@]3(F)[C@@H](O)C[C@]2(C)[C@@]1(O)C(=O)CO [Dexamethasone]
- TGI (%) Day 17 [2, 11]: 9%
- Tumor Volume (mm^3) (Mean ± SEM) Day 17 [2, 11]: 1036.5 ± 88.8 mm^3
- TGI (%) Day 17 ([2]; Dexamethasone 1 mg/kg p.o. QD): 46%
- Tumor Volume (mm^3) (Mean ± SEM) Day 17 ([2]; Dexamethasone 1 mg/kg p.o. QD): 696.0 ± 69.2 mm^3
